Measurements from ChEMBL document CHEMBL3817788, “Natural cholinesterase inhibitors from Myristica cinnamomea King” (Bioorg Med Chem Lett, 2016).
pIC50, pKi: −log10 of the molar value.

Experiments:
[1] = Inhibition of Saccharomyces cerevisiae alpha-glucosidase using p-nitrophenyl-alpha-D-glucopyranoside as substrate preincubated for 10 mins followed by substrate addition measured after 10 mins
[2] = biological target: T1, Cholinesterase (Equus caballus, UniProt P81908); assay: Inhibition of equine serum BChE using S-butyrylthiocholine chloride as substrate incubated for 30 mins by Ellman's microplate assay
[3] = Selectivity index, ratio of IC50 for AChE (unknown origin) to IC50 for equine serum BChE
[4] = test system: Acetylcholinesterase; assay: Inhibition of AChE (unknown origin) at 100 ug/ml using acetylthiocholine iodide as substrate incubated for 30 mins by Ellman's microplate assay; settings: Homo sapiens
[5] = biological target: Cholinesterase (Equus caballus) (UniProt P81908); assay: Inhibition of equine serum BChE at 100 ug/ml using S-butyrylthiocholine chloride as substrate incubated for 30 mins by Ellman's microplate assay
[6] = biological target: T2, Acetylcholinesterase (Homo sapiens, UniProt P22303); assay: Inhibition of AChE (unknown origin) using acetylthiocholine iodide as substrate incubated for 30 mins by Ellman's microplate assay
[7] = Selectivity index, ratio of IC50 for equine serum BChE to IC50 for AChE (unknown origin)
[8] = biological target: T2, Acetylcholinesterase; assay: Mixed inhibition of AChE (unknown origin) using acetylthiocholine iodide as substrate incubated for 30 mins by Lineweaver-Burk plot analysis
[9] = biological target: T1, Cholinesterase; assay: Mixed inhibition of equine serum BChE using S-butyrylthiocholine chloride as substrate incubated for 30 mins by Lineweaver-Burk plot analysis

T1 sequence (P81908 whole entry): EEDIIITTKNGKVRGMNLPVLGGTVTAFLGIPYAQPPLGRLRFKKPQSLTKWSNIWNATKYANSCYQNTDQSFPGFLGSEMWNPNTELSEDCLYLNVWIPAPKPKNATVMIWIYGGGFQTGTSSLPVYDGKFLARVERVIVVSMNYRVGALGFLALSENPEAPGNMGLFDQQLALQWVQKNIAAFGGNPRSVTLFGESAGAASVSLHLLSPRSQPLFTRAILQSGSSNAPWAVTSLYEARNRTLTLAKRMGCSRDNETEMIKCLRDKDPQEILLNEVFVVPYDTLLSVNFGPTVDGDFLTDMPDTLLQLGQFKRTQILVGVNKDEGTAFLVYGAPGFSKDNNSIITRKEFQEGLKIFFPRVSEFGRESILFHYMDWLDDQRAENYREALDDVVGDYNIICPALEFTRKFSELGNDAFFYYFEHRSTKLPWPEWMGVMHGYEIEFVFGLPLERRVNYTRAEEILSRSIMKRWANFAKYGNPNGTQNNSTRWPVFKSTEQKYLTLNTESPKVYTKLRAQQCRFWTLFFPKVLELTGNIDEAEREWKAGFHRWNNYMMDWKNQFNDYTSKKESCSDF
Sequence of Cholinesterase (Equus caballus) (P81908 whole entry): as above
T2 sequence (P22303 whole entry): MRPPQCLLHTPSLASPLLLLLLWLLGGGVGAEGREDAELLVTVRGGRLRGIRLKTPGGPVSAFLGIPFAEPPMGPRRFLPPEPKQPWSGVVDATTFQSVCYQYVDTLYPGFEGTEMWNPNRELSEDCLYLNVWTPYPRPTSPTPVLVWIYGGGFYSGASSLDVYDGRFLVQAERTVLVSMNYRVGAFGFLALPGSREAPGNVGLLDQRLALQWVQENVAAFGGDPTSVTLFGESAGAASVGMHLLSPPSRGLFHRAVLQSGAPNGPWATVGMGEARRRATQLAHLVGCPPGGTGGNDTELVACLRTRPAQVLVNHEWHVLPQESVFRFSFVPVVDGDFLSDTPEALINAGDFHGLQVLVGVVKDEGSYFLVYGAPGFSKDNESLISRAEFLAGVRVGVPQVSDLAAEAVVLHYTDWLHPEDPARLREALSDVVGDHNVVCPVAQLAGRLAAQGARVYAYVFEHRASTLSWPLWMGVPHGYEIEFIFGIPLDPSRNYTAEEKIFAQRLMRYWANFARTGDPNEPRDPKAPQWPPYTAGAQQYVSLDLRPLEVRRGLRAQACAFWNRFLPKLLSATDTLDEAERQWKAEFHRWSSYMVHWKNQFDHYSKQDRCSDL

SMILES | pIC50 [1] | pIC50 [2] | Ratio IC50 [3] | inhibition [4] [%] | inhibition [5] [%] | pIC50 [6] | Ratio IC50 [7] | pKi [8] | pKi [9]
O=C(CCCCCCCCc1cc(O)c(O)cc1-c1ccc(O)c(C(=O)CCCCCCCCc2ccccc2)c1O)c1c(O)cccc1O | 5.30 |  |  |  |  |  |  |  | 
O=C1CC(CCCCCCc2ccc(O)cc2)Oc2cccc(O)c21 (centres undefined) | 3.45 |  |  |  |  |  |  |  | 
O=C(CCCCCCCCc1ccc(O)c(O)c1)c1c(O)ccc(C(CCCCCCCCc2ccc(O)c(O)c2)c2c(O)cccc2O)c1O (centres undefined) |  | 4.98 | 1.2 | 75.4 | 81.1 | 4.90 | 0.83 |  | 
O=C(CCCCCCCCc1ccc(O)c(O)c1)c1c(O)ccc(C(CCCCCCCCc2ccc(O)cc2)c2c(O)cccc2O)c1O (centres undefined) |  | 4.90 | 2.45 | 91.5 | 86.7 | 4.51 | 0.41 |  | 
O=C(CCCCCCCCc1ccc(O)cc1)c1c(O)cc(O)cc1O |  | 5.18 | 0.97 | 99.4 | 86.8 | 5.19 | 1.03 |  | 
O=C(O)CCCCCCCCc1ccc(O)cc1 |  |  |  | 45.1 | 49 |  |  |  | 
O=C(CCCCCCCCc1ccccc1)c1c(O)cccc1O [MALABARICONE A] |  | 4.41 | 0.04 | 97.4 | 69.5 | 5.88 | 33 |  | 
O=C(CCCCCCCCc1ccc(O)cc1)c1c(O)cccc1O [MALABARICONE B] |  | 5.75 | 1.05 | 95.9 | 87.3 | 5.74 | 0.96 | 5.36 | 6.25
O=C(CCCCCCCCc1ccc(O)c(O)c1)c1c(O)cccc1O [MALABARICONE C] |  | 5.55 | 0.69 | 97.1 | 94.1 | 5.71 | 1.44 | 5.23 | 4.94
